Results on 3 compounds are retold here after US11419335B2, “N-arylated analogues and uses thereof” (University of Florida Research Foundation, Incorporated, priority 2016, dated 2022).

By MIC is commonly meant the least concentration at which growth counts as inhibited. As a reminder, the HC50 is the concentration giving 50% haemolysis.

In brackets after ≈: the same amount, converted by molar mass. Read-outs that look alike come from different tables or passages of the source. Marks after values point to notes of the source that are not given here.

One data set has as its system C. albicans SC5314. The experiment in a line: Fungal MIC susceptibility assay, C. albicans. The class given is cell-based, Candida albicans. The note with it: Table 4, antifungal. Here is the method: (§1) Fungal minimum inhibition concentrations (MICs) were determined using standard microdilution methods according to the Clinical and Laboratory Standards Institute document M27-A3. The test compound concentration ranged from 0.01 to 100 μM. Amphotericin B (AmB) and itraconazole (ITC) (Fisher Scientific) were included as positive controls. DMSO, the vehicle control, was used at ≤1% v/v for these experiments. The fungal M27-A3 standard MIC assay protocol requires the following inoculum preparation protocol: The organisms were cultured onto PDA medium at 35° C. The inoculum is prepared by picking five colonies from 24-hour old culture of Candida spp. or 48-hour old culture of C. neoformans. The inoculum was suspended in 5 ml of sterile water, the resulting suspension was vortexed for 15 seconds and the cell density adjusted (by adding more sterile water) to an OD530=0.30, which yields a suspension of 1×10^6 to 5×10^6 cells per mL. The suspension was diluted 50 times and then 20 times using RPMI 1640 medium to obtain the two times test inoculum (1×10^3 to 5×10^3 cells per mL). The following steps are the same with the standard bacterial MIC protocol using 96-well plates. NOTE: RPMI 1640 medium was used in the fungal MIC assay (for both cell inoculum and compound dilution).

For another data set, the system named is C. neoformans ATCC 66031. Description: Fungal MIC susceptibility assay, C. neoformans. The class given is cell-based. The note with it: Table 4, antifungal. As for the experimental part: as §1
The test system of data set [1] is methicillin-resistant Staphylococcus aureus MRSA-2 (clinical isolate). Description: MIC broth microdilution, MRSA-2. The format is cell-based. In outline:
(§2)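 Each strain, ~10^5 cells from log-phase culture, was grown 16–18 h at 37 °C in Luria Broth with two-fold serial compound dilutions spanning 0.10–100 μM (DMSO ≤1% v/v). The MIC, the lowest growth-preventing concentration, was confirmed by OD600 following CLSI microdilution. At least three independent repeats.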

Data set [2] has as its system Klebsiella pneumoniae (ATCC 13883). Description: MIC broth microdilution, K. pneumoniae 13883. The class given is cell-based. Here is the method: (§3) The minimum inhibitory concentration (MIC) for each tested compound was determined by the broth microdilution method as recommended by the Clinical and Laboratory Standards Institute (CLSI). In a 96-well plate, eleven two-fold serial dilutions of each compound were made in a final volume of 100 μL Luria Broth. Each well was inoculated with ˜10^5 bacterial cells at the initial time of incubation, prepared from a fresh log phase culture (OD600 of 0.5 to 1.0 depending on bacterial strain). The MIC was defined as the lowest concentration of compound that prevented bacterial growth after incubating 16 to 18 hours at 37° C. (MIC values were supported by spectrophotometric readings at OD600). DMSO served as our vehicle and negative control in each microdilution MIC assay. DMSO was serially diluted with a top concentration of 1% v/v.
as §3, with “for each compound was” for “for each tested compound was”, “Standards Institute (CLSI).^6 In a” for “Standards Institute (CLSI). In a”, “concentration of test compound that” for “concentration of compound that”, “37° C. The concentration range tested for each compound during this study was 0.10 to 100 μM. DMSO served” for “37° C. (MIC values were supported by spectrophotometric readings at OD600). DMSO served”, “1% v/v. All MIC values were obtained from a minimum of three independent experiments.” for “1% v/v.”
A general note: In broth dilution the organism is exposed to a series of concentrations in liquid medium.

In another data set the test system is MRSE ATCC 35984 biofilms. The experiment in a line: Calgary Biofilm Device assay (MBC/MBEC), MRSE 35984. The format is cell-based, Staphylococcus epidermidis. As to conditions: Table 2, CBD assay. As for the experimental part: (§4) The lid of the Calgary device was then removed, washed and transferred to another 96-well plate containing 2-fold serial dilutions of the test compounds (the “challenge plate”). The total volume of media with compound in each well in the challenge plate is 150 μL. […] The lid was then removed from the challenge plate and MBC/MBEC values were determined using different final assays. […] The MBC values were determined as the concentration giving a lack of visible bacterial growth (i.e., turbidity). […] In select experiments, pegs from the Calgary device were removed from lead biofilm eradicators after final incubation, sonicated for 30 minutes in PBS and plated out to determine biofilm cell killing of lead biofilm-eradicating agents (i.e., colony forming unit per milliliter, CFU/mL).
(§5) Using a Calgary Biofilm Device, bacterial biofilms are established on pegs suspended to the bottom of a 96-well plate lid. Following biofilm establishment on lid pegs, lids are then transferred to new 96-well plates containing serial dilutions of test compound and allowed to incubate. After compound treatment, 96-well plate lids with pegs are once again transferred to 96-well plates containing fresh media. During this final phase of the assay, viable biofilms will grow and disperse planktonic cells into the media where they will grow and give a turbid well result. Conversely, wells that have no growth are a result of pegs that had eradicated bacterial biofilms. The lowest concentration at which no turbidity is observed is the minimum biofilm eradication concentration (MBEC). Using the Calgary Biofilm Device, both minimum biofilm eradication concentrations and minimum bactericidal concentrations (MBC) for planktonic bacterial can be determined using one assay from a single bacterial culture (FIG. 3A).

Data set [3] deals with Escherichia coli clinical isolate (UAEC-1). Description: MIC broth microdilution, UAEC-1. The format is cell-based. As for the experimental part: as §3
as §3, with “for each compound was” for “for each tested compound was”, “Standards Institute (CLSI).^6 In a” for “Standards Institute (CLSI). In a”, “concentration of test compound that” for “concentration of compound that”, “37° C. The concentration range tested for each compound during this study was 0.10 to 100 μM. DMSO served” for “37° C. (MIC values were supported by spectrophotometric readings at OD600). DMSO served”, “1% v/v. All MIC values were obtained from a minimum of three independent experiments.” for “1% v/v.”

For data set [4], the system named is Acinetobacter baumannii (ATCC 1794). Description: MIC broth microdilution, A. baumannii 1794. The class given is cell-based. In outline: as §2
The subject of data set [5] is human red blood cells (hRBC). Description: Hemolysis of red blood cells. The format is cell-based. As for the experimental part: The washing was repeated three times with the buffer. In a 96-well plate, test compounds were added to the buffer from DMSO stocks. […] The plate was then incubated for 1 hour at 37° C. After incubation, the plate was centrifuged for 5 minutes at 3,500 rpm. Then 80 μL of the supernatant was transferred to another 96-well plate and the optical density (OD) was read at 405 nm. DMSO served as our negative control (0% hemolysis) while Triton X served as our positive control (100% hemolysis). […] All reported data correspond to three independent experiments. Ten-point dose-response curves were generated in 96-well plates to determine 50% hemolysis (HC50 values) of red blood cells.
The washing was repeated three times with the buffer. In 96-well plate, the test compounds were added to the buffer. Then 50 μL of 2% of hRBCs in the buffer were added to the test plate to make the final concentrations ranging from 0.2 to 200 μM of each test compound. The plate was then incubated for 1 hour at 37° C. After incubation, the plate was centrifuged for 5 minutes at 3500 rpm and then 80 μL of the supernatant was transferred to another 96-well plate and the Optical Density (OD) was read at 405 nm. DMSO served as our negative control (0% haemolysis) and Triton X served as our positive control (100% haemolysis). The HC50 (concentration of test compound required to lyse red blood cells by 50%) was calculated by plotting the dose-response curve (not shown) with Graphpad Prism 6.0. All data were obtained from three independent haemolysis experiments.

Data set [6] has as its system methicillin-resistant Staphylococcus epidermidis (MRSE strain ATCC 35984). The experiment in a line: MIC broth microdilution, MRSE 35984. The format is cell-based. Put shortly:
as §2

The test system of another data set is MRSA BAA-1707 biofilms. The experiment in a line: Calgary Biofilm Device assay (MBC/MBEC), MRSA BAA-1707. The class given is cell-based, Staphylococcus aureus. The note with it: Table 2, CBD assay. Here is the method:
as §4, §5

In a further data set the test system is VRE ATCC 700221 biofilms. The experiment in a line: Calgary Biofilm Device assay (MBC/MBEC), VRE 700221. The class given is cell-based, Enterococcus faecium. The note with it: Table 2, CBD assay. As for the experimental part:
as §4, §5

Data set [7] has as its system Pseudomonas aeruginosa (PAO1). The experiment in a line: MIC broth microdilution, PAO1. The format is cell-based. In outline:
as §2

Data set [8] relates to vancomycin-resistant Enterococcus faecium (VRE strain ATCC 700221). Description: MIC broth microdilution, VRE 700221. The format is cell-based. Put shortly: as §2
A further data set deals with MRSA BAA-1707. The experiment in a line: MIC broth microdilution, MRSA BAA-1707. The format is cell-based, Staphylococcus aureus. Put shortly:
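Compounds ranged from 0.10 to 100 μM in two-fold steps in Luria Broth, with ~10^5 log-phase bacteria per well. The vehicle control was DMSO, serially diluted from 1% v/v.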

Take `C[C@@H]1[C@H](O)[C@@H](C)/C=C/C=C/C=C/C=C/C=C/C=C/C=C/[C@H](O[C@@H]2O[C@H](C)[C@@H](O)[C@H](N)[C@@H]2O)C[C@@H]2O[C@](O)(C[C@@H](O)C[C@@H](O)[C@H](O)CC[C@@H](O)C[C@@H](O)CC(=O)O[C@H]1C)C[C@H](O)[C@H]2C(=O)O` [Amp. B, Amphotericin B, reference compound]: the “MIC C. albicans SC5314” value in the data set on C. albicans SC5314 is 0.78 µM (≈ 0.721 µg/mL). In addition, the “MIC C. neof 66031” value against C. neoformans ATCC 66031 worked out at 0.1 µM (≈ 0.0924 µg/mL).
On to `CCCCCCCCCCCC[N+](C)(C)Cc1ccccc1.[Cl-]` [BAC-12, reference compound], for which the MIC in data set [1] (MRSA-2 and MRSA BAA-1707, read-out: MIC against two MRSA strains) was 6.25 µM; in data set [1] (Table 1, read-out: MIC MRSA-2), 6.25 µM; in data set [3] (Table 1), 50 µM; in data set [6] (Table 1, read-out: MIC MRSE 35984) it was 3.13 µM; in [6] (Table 2, read-out: MRSE 35984 MIC) it was 3.13 µM; in data set [7] (Table 1) it was more than 100 µM. In addition, the MIC amounted to 25 µM in [8] (Table 1, read-out: MIC VRE 700221); 25 µM in data set [8] (Table 2, read-out: VRE 700221 MIC); 6.25 µM with MRSA BAA-1707 (Table 1, read-out: MIC MRSA BAA-1707); 6.25 µM with MRSA BAA-1707 (Table 2, read-out: MRSA BAA-1707 MIC). For the same compound, the “MIC MRSA-2” value in data set [1] (Table 4) was 6.25 µM. Besides, the “MIC K. pneumoniae 13883” value in data set [2] (Table 1) is reported as 75^a μM. The “MIC K. pneu. 13883” value in [2] (Table 4) amounted to 75a micromolar. In addition, in the data set with MRSE ATCC 35984 biofilms (biofilm), the “MRSE 35984 MBEC” value was more than 2000 µM. The MBC with MRSE ATCC 35984 biofilms (planktonic cells) came to 11.7 µM; with MRSA BAA-1707 biofilms (planktonic cells), 15.6 µM; against VRE ATCC 700221 biofilms (planktonic cells), 31.3 µM. Further, in [3] (Table 4), the “MIC UAEC-1” value is 50 µM. Moreover, the “MIC A. baumannii 1794” value in data set [4] (Table 1) is listed as 75^a μM. For the same compound, the “MIC A. bau. 1794” value in data set [4] (Table 4) is 75a micromolar. The compound also gave an HC50 in data set [5] of more than 100 µM. For the same compound, the “MIC MRSE 35984” value in data set [6] (Table 4) came to 3.13 µM. The “MRSA BAA-1707 MBEC” value in the data set on MRSA BAA-1707 biofilms (biofilm) is more than 1000 µM. Also, the “VRE 700221 MBEC” value in the data set on VRE ATCC 700221 biofilms (biofilm) is 23.5 µM. Besides, in data set [7] (Table 4), the “MIC PAO1” value was more than 100 µM. Besides, the “MIC VRE 700221” value in [8] (Table 4) is 25 µM. The “MIC MRSA 1707” value with MRSA BAA-1707 (Table 4) is 6.25 µM.
For `CCCCCCCCCCCCCCCCn1cc[n+](Cc2ccc(C[n+]3ccn(CCCCCCCCCCCCCCCC)c3C)cc2)c1C` [Compound 28], the MIC in data set [1] (Staphylococcus aureus, MRSA, Table 4, read-out: MIC MRSA-2) was more than 100 µM; in [2] (Klebsiella pneumoniae, ATCC13883, Table 4, read-out: MIC K. pneu. 13883), more than 100 µM; against C. albicans SC5314 (Candida albicans, SC5314), 50 µM; in data set [3] (Escherichia coli, Table 4), more than 100 µM; in data set [4] (Acinetobacter baumannii, ATCC1794, Table 4, read-out: MIC A. bau. 1794), more than 100 µM; in the data set on C. neoformans ATCC 66031 (Cryptococcus neoformans, ATCC66031, read-out: MIC C. neof 66031), 25 µM. Moreover, the MIC in data set [6] (Staphylococcus epidermidis, Table 4, read-out: MIC MRSE 35984) is more than 100 µM; in data set [7] (Pseudomonas aeruginosa, PAO1, Table 4) it was more than 100 µM; in data set [8] (Table 4, read-out: MIC VRE 700221) it was more than 100 µM; with MRSA BAA-1707 (Staphylococcus aureus, Table 4, read-out: MIC MRSA 1707), more than 100 µM.
